Key:
[1] = biological target: human opioid receptor-like receptor (ORL-1) (Homo sapiens (Human), UniProt P41146); assay: ORL-1 receptor radioligand binding assay ([3H]-nociceptin); settings: binding affinity, read-out: Ki (nM) ORL-1
Experimental: ORL-1 Receptor Binding Assay Procedure: Membranes from recombinant HEK-293 cells expressing the human opioid receptor-like receptor (ORL-1) (Perkin Elmer, Shelton, Conn.) was prepared by lysing cells in ice-cold hypotonic buffer (2.5 mM MgCl2, 50 mM HEPES, pH 7.4) (10 ml/10 cm dish) followed by homogenization with a tissue grinder/Teflon pestle. Membranes were collected by centrifugation at 30,000×g for 15 min at 4° C. and pellets resuspended in hypotonic buffer to a final concentration of 1-3 mg/ml. Protein concentrations were determined using the BioRad protein assay reagent with bovine serum albumen as standard. Aliquots of the ORL-1 receptor membranes were stored at −80° C.
Radioligand binding assays (screening and dose-displacement) use 0.1 nM [^3H]-nociceptin (Perkin Elmer, Shelton, Conn.; 87.7 Ci/mmole) with 12 μg membrane protein in a final volume of 500 μl binding buffer (10 mM MgCl2, 1 mM EDTA, 5% DMSO, 50 mM HEPES, pH 7.4). Non-specific binding was determined in the presence of […] unlabeled nociceptin (American Peptide Company). […] Fifty μl/well scintillation cocktail (Perkin Elmer, Shelton, Conn.) was added and plates are counted in a Packard Top-Count for 1 min/well. The data from screening and dose-displacement experiments were analyzed using Microsoft Excel and the curve fitting functions in GraphPad PRISM™, v. […]

[2] = biological target: recombinant human kappa opioid receptor (κ) (Homo sapiens (Human), UniProt P41145); assay: κ-opioid receptor radioligand binding assay ([3H]-U69,593); settings: binding affinity
Experimental: κ-Opioid Receptor Binding Assay Procedures: Membranes from HEK-293 cells, CHO cells or U-2 OS cells expressing the recombinant human kappa opioid receptor (κ) were prepared by lysing cells in ice cold hypotonic buffer (2.5 mM MgCl2, 50 mM HEPES, pH 7.4) (10 mL/10 cm dish) followed by homogenization with a tissue grinder/Teflon pestle. Membranes from a cell line naturally expressing kappa opioid receptor can also be used. Membranes were collected by centrifugation at 30,000×g for 15 min at 4° C. and pellets were resuspended in hypotonic buffer to a final concentration of 1-3 mg/mL. Protein concentrations were determined using the BioRad protein assay reagent with bovine serum albumen as standard. Aliquots of κ receptor membranes were stored at −80° C.
Radioligand dose displacement assays used 0.4 nM [^3H]-U69,593 (GE Healthcare, Piscataway, N.J.; 40 Ci/mmole) with 15 μg membrane protein (recombinant opioid receptor expressed in HEK 293 cells; in-house prep) in a final volume of 200 μl binding buffer (5% DMSO, 50 mM Trizma base, pH 7.4). Non-specific binding was determined in the presence of 10 μM unlabeled naloxone or U69,593. All reactions were performed in 96-well polypropylene plates for 1 hour at a temperature of about 25° C. Binding reactions were terminated by rapid filtration onto 96-well Unifilter GF/C filter plates (Perkin Elmer, Shelton, Conn.) presoaked in 0.5% polyethylenimine (Sigma). Harvesting was performed using a 96-well tissue harvester (Perkin Elmer, Shelton, Conn.) followed by five filtration washes with 200 μl ice-cold binding buffer. Filter plates were subsequently dried at 50° C. for 1-2 hours. Fifty μl/well scintillation cocktail (Perkin Elmer, Shelton, Conn.) was added and plates were counted in a Packard Top-Count for 1 min/well.

κ-opioid receptor [3] = biological target: T1, κ-opioid receptor (Homo sapiens (Human), UniProt P41145); assay: κ-opioid receptor [35S]GTPγS functional assay, U-2 OS cells (Table 5); assay type: biochemical
Method in brief: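 [35S]GTPγS binding in κ receptor membranes (0.026 μg/μl protein) with 10 μg/mL saponin, 3 μM GDP and 0.20 nM [35S]GTPγS in pH 7.4 HEPES/NaCl/MgCl2 buffer. Agonist incubation lasted 30 min at about 25 °C, followed by filtration and scintillation counting. Emax is expressed relative to U69,593.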

μ-opioid receptor [4] = biological target: T2, μ-opioid receptor (Homo sapiens (Human), UniProt P35372); assay: μ-opioid receptor [35S]GTPγS functional assay, U-2 OS cells (Table 5); assay type: biochemical; settings: relative to DAMGO
Method in brief: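 Membranes (0.026 mg/mL) from cells expressing recombinant human μ-opioid receptor in a U-2 OS background were incubated with 0.20 nM [35S]GTPγS, 3 mM GDP and saponin in 20 mM HEPES pH 7.4, 100 mM NaCl, 10 mM MgCl2 for 30 min at about 25 °C. Filter-bound radioactivity counted; sigmoidal dose-response fits gave values, Emax relative to DAMGO.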

μ-opioid receptor [5] = biological target: T2, μ-opioid receptor; assay: μ-opioid receptor [35S]GTPγS functional assay, HEK-293 or CHO cells (Table 4); assay type: biochemical; settings: relative to DAMGO
Method in brief: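 Membranes from HEK-293, CHO or U-2 OS cells (or commercial) expressing recombinant μ receptor; 0.20 nM [35S]GTPγS, 3 mM GDP, saponin, in 100 mM NaCl/10 mM MgCl2/20 mM HEPES pH 7.4.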

κ-opioid receptor [6] = biological target: T1, κ-opioid receptor; assay: κ-opioid receptor [35S]GTPγS functional assay, HEK-293 or CHO cells (Table 4); assay type: biochemical
Experimental: (§1) κ-Opioid Receptor Functional Assay Procedures: Functional [^35S]GTPγS binding assays were conducted as follows. κ opioid receptor membrane solution was prepared by sequentially adding final concentrations of 0.026 μg/μl κ membrane protein (in-house), 10 μg/mL saponin, 3 μM GDP and 0.20 nM [^35S]GTPγS to binding buffer (100 mM NaCl, 10 mM MgCl2, 20 mM HEPES, pH 7.4) on ice. The prepared membrane solution (190 μl/well) was transferred to 96-shallow well polypropylene plates containing 10 μl of 20× concentrated stock solutions of agonist prepared in DMSO. Plates were incubated for 30 min at a temperature of about 25° C. with shaking. Reactions were terminated by rapid filtration onto 96-well Unifilter GF/B filter plates (Perkin Elmer, Shelton, Conn.) using a 96-well tissue harvester (Packard) and followed by three filtration washes with 200 μl ice-cold binding buffer (10 mM NaH2PO4, 10 mM Na2HPO4, pH 7.4). Filter plates were subsequently dried at 50° C. for 2-3 hours. Fifty μl/well scintillation cocktail (Perkin Elmer, Shelton, Conn.) was added and plates were counted in a Packard Top-Count for 1 min/well.
κ GTP Emax (%) is the maximal effect elicited by a compound relative to the effect elicited by U69,593.
In TABLE 4, activity response of certain Compounds of the Invention to the μ- and κ-opioid receptors was determined as described above for functional assays using HEK-293 or CHO cells.

κ-opioid receptor [7] = biological target: T1, κ-opioid receptor; assay: κ-opioid receptor [35S]GTPγS functional assay, HEK-293 cells (Table 6); assay type: biochemical
Experimental: as §1, with “min/well. […]” for “min/well.”
The following TABLE 6 provides results on the activity response of certain Compounds of the Invention at the μ- and κ-opioid receptors determined as described above using HEK-293 cells.

μ-opioid receptor [8] = biological target: T2, μ-opioid receptor; assay: μ-opioid receptor [35S]GTPγS functional assay, HEK-293 cells (Table 6); assay type: biochemical
Method in brief: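 [35S]GTPγS (0.20 nM) binding in HEK-293 membranes expressing recombinant receptor (0.026 mg/mL protein), with GDP (3 mM) and saponin, HEPES buffer pH 7.4, 30 min at about 25° C. Bound radioactivity collected by filtration and counted. Emax (%) expressed relative to DAMGO from sigmoidal dose-response fits.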

Row | Compound | Ki [1] | Ki [2] | Emax (κ-opioid receptor [3]; relative to U69,593) | EC50 (κ-opioid receptor [3]; κ GTP) | Emax (μ-opioid receptor [4]) | Emax (μ-opioid receptor [5]) | Emax (κ-opioid receptor [6]; relative to U69,593) | EC50 (κ-opioid receptor [6]; κ GTP) | Emax (κ-opioid receptor [7]; relative to U69,593) | EC50 (κ-opioid receptor [7]; κ GTP) | Emax (μ-opioid receptor [8]; relative to DAMGO) | EC50 (μ-opioid receptor [8]; μ GTP)
1 | N=C(N)NCCNC(=O)[C@@H]1C[C@]23CCN(CC4CC4)[C@H](Cc4ccc(O)cc42)[C@]3(O)C1 [Compound 6, (2R,3aS,4R,9bS)-12-(cyclopropylmethyl)-N-(2-guanidinoethyl)-3a,8-dihydroxy-1,2,3,3a,4,5-hexahydro-4,9b-(epimino-ethano)cyclopenta[a]naphthalene-2-carboxamide] | 10300 ± 2140 nM | 0.098 ± 0.032 nM | 98 ± 3.21% | 0.87 ± 0.16 nM | 57 ± 2.08% | 0% | 48.6 ± 0.98% | 0.86 ± 0.16 nM | – | – | – | –
2 | CN1CC[C@]23C[C@H](C(=O)NCCc4ccccc4)C[C@@]2(O)[C@H]1Cc1ccc(O)cc13 [Compound 108, (2S,3aS,4R,9bS)-3a,8-dihydroxy-12-methyl-N-phenethyl-1,2,3,3a,4,5-hexahydro-4,9b-(epiminoethano)cyclo-penta[a]naphthalene-2-carboxamide] | – | 9.29 ± 2.14 nM | – | – | – | – | – | – | 40.6 ± 3.3% | 138 ± 35 nM | 83.3 ± 5.17% | 12.4 ± 2.76 nM

From US9656962B2, “Ring-contracted morphinans and the use thereof” (Purdue Pharma L.P., priority 2013, dated 2017)
